Earlier results in patent US20060275294A1, “METHOD OF PREVENTION AND TREATMENT OF AGING, AGE-RELATED DISORDERS AND/OR AGE-RELATED MANIFESTATIONS INCLUDING ATHEROSCLEROSIS, PERIPHERAL VASCULAR DISEASE, CORONARY ARTERY DISEASE, OSTEOPOROSIS, ARTHRITIS, TYPE 2 DIABETES, DEMENTIA, ALZHEIMERS DISEASE AND CANCER” (priority 2002, published 2006).
pIC50: −log10 of the molar value.

Assays:
[1] = test system: NF-kappaB; conditions: pretreatment, rat VSMCs; cited from earlier work
[2] = biological target: isopentenyl diphosphate isomerase (Homo sapiens, UniProt Q13907); conditions: cited from earlier work
[3] = biological target: GGPP synthase (Homo sapiens, UniProt O95749); conditions: cited from earlier work
[4] = test system: interleukin (IL)-6 bioactivity; conditions: cited from earlier work
[5] = biological target: Recombinant human farnesyl diphosphate synthase (Homo sapiens, UniProt P14324); conditions: cited from earlier work
[6] = test system: human monocytic THP-1 cells; conditions: 10 microM, 24 h pretreatment; cited from earlier work
[7] = test system: rat primary astrocytes, microglia, and macrophages; conditions: cited from earlier work
[8] = test system: human T, B and myeloma tumor cells; conditions: by promoting apoptosis; cited from earlier work

Sequence of isopentenyl diphosphate isomerase (Q13907 whole entry): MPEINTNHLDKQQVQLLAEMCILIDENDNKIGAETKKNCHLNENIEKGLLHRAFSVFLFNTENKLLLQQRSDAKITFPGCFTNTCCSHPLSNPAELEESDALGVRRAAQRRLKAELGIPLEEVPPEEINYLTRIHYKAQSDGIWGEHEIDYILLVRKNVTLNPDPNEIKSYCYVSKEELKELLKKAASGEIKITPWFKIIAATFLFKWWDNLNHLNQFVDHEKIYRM
Sequence of GGPP synthase (O95749 whole entry, species assumed): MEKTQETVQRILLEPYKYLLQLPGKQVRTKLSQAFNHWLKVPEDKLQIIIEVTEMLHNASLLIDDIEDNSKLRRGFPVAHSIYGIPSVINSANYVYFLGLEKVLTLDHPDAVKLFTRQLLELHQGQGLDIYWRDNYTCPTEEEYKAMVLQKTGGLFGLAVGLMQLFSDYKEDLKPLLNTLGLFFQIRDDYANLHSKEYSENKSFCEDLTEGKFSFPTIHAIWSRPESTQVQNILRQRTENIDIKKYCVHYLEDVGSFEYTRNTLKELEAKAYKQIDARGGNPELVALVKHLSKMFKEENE
Sequence of Recombinant human farnesyl diphosphate synthase (P14324 whole entry): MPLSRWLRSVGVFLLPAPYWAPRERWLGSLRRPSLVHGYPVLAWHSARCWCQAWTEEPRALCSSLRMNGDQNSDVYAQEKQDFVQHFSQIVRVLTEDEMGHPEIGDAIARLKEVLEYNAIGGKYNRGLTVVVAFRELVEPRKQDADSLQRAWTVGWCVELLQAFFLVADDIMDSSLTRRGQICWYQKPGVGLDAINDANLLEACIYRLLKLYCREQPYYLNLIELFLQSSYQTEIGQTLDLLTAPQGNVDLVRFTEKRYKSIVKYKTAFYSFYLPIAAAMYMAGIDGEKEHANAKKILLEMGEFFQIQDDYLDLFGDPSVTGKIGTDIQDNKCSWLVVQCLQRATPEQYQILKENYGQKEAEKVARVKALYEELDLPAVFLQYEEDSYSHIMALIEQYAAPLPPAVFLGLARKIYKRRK

Cc1ccc(S(=O)(=O)N[C@@H](Cc2ccccc2)C(=O)CCl)cc1 [TPCK]
Sar1 Ang II-induced NF-kappaB activation and induction of endogenous IL-6 gene expression [1]: completely blocked

NCCCC(O)(P(=O)(O)O)P(=O)(O)O [alendronate]
inhibition of isopentenyl diphosphate isomerase [2]: did not inhibit
inhibition of GGPP synthase [3]: did not inhibit

O=c1c(-c2ccc(O[C@@H]3O[C@H](CO)[C@@H](O)[C@H](O)[C@H]3O)cc2)coc2cc(O)cc(O)c12 [Sophoricoside]
pIC50 [4]: 5.21

O=P(O)(O)C(Cl)(Cl)P(=O)(O)O [clodronate]
inhibition of recombinant farnesyl diphosphate synthase [5]: not at all

CC[C@H](C)C(=O)O[C@H]1C[C@@H](C)C=C2C=C[C@H](C)[C@H](CC[C@@H]3C[C@@H](O)CC(=O)O3)[C@H]21 [lovastatin]
hydrogen peroxide (H2O2) generation [6]: markedly suppressed
LPS-mediated activation of NF kappa B ([7]; astrocytes): Inhibition
LPS-induced expression of TNF-alpha, IL-1beta, and IL-6 ([7]; rat primary astrocytes, microglia, macrophages): inhibited
LPS and cytokine-mediated production of NO and expression of iNOS ([7]; rat primary astrocytes): inhibit
effect on human T, B and myeloma tumor cells [8]: cytotoxic effect
